Target: CREBBP (Homo sapiens (Human), UniProt Q92793)
Assay: In vitro enzyme inhibition assay - CREBBP inhibition (AlphaScreen, biotinylated H4-tetraacetyl peptide)
Type: binding
Details: Table 28; AlphaScreen, H4-tetraacetyl peptide
Method: Determination of the IC50 for the CREBBP inhibitors disclosed herein was performed as follows: CREBBP was cloned and expressed in E. Coli as His-tag protein and purified by Nickel affinity and gel-filtration chromatography. […] CREBBP binding and inhibition was assessed by monitoring the interaction of biotinylated H4-tetraacetyl peptide (AnaSpec, H4K5/8/12/16(Ac), biotin-labeled) with the target using the AlphaScreen technology (Perkin Elmer). In a 384-well ProxiPlate CREBBP (50 nM final) was combined with peptide (20 nM final) in 50 mM HEPES (pH 7.3), 10 mM NaCl, 0.25 mM TCEP, 0.1% (w/v) BSA, and 0.005% (w/v) Brij-35 either in the presence of DMSO (final 0.4% DMSO) or compound dilution series in DMSO. After 20-minute incubation at room temperature, Alpha streptavidin donor beads and Nickel Chelate acceptor beads were added to a final concentration of 5 μg/mL. After two hours of equilibration, plates were read on an Envision instrument and the IC50 was calculated using a four parameter non-linear curve fit.
The ability of the compounds disclosed herein to inhibit CBP activity was quantified and the respective IC50 value was determined.

Chain of CREBBP (Q92793 1081-1197): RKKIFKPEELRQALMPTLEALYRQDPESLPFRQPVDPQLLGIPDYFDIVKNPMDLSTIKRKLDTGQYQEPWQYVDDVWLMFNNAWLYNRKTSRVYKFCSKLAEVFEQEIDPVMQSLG

Structure (SMILES)	IC50
CCCCS(=O)(=O)Nc1cc(-c2cn(C)c(=O)cc2C)nc(Oc2c(C)cccc2C)n1 [Example 89, N-(6-(1,4-dimethyl-6-oxo-1,6-dihydropyridin-3-yl)-2-(2,6-dimethylphenoxy)pyrimidin-4-yl)butane-1-sulfonamide]	< 500 nM
Cc1cc(-c2cc(NS(=O)(=O)C(C)C)nc(Oc3cc(C(C)C)ccc3Cl)n2)cn(C)c1=O [Example 40, Propane-2-sulfonic acid [2-(2-chloro-5-isopropyl-phenoxy)-6-(1,5-dimethyl-6-oxo-1,6-dihydro-pyridin-3-yl)-pyrimidin-4-yl]-amide]	< 500 nM
CCCCS(=O)(=O)Nc1cc(-c2cc(C)c(=O)n(C)c2)nc(Oc2c(C#N)cccc2OC)n1 [Example 12, Butane-1-sulfonic acid [2-(2-cyano-6-methoxy-phenoxy)-6-(1,5-dimethyl-6-oxo-1,6-dihydro-pyridin-3-yl)-pyrimidin-4-yl]-amide]	< 500 nM
CCCS(=O)(=O)Nc1cc(-c2cc(C)c(=O)n(C)c2)nc(Oc2ccncc2C)n1 [Example 111, Propane-1-sulfonic acid [6-(1,5-dimethyl-6-oxo-1,6-dihydro-pyridin-3-yl)-2-(3-methyl-pyridin-4-yloxy)-pyrimidin-4-yl]-amide]	500 to 5000 nM
Cc1cccc(F)c1Oc1nc(NS(=O)(=O)C(C)C)cc(-c2ccc(=O)n(C)c2)n1 [Example 119, Propane-2-sulfonic acid [2-(2-fluoro-6-methyl-phenoxy)-6-(1-methyl-6-oxo-1,6-dihydro-pyridin-3-yl)-pyrimidin-4-yl]-amide]	< 500 nM
CCCS(=O)(=O)Nc1cc(-c2cc(C)c(=O)n(C)c2)nc(Oc2c(C)cccc2Cl)n1 [Example 101, Propane-1-sulfonic acid [2-(2-chloro-6-methyl-phenoxy)-6-(1,5-dimethyl-6-oxo-1,6-dihydro-pyridin-3-yl)-pyrimidin-4-yl]-amide]	< 500 nM
CCn1cc(-c2cc(NS(=O)(=O)C(C)C)nc(Oc3ccc(F)cc3F)n2)cc(C)c1=O [Example 44, Propane-2-sulfonic acid [2-(2,4-difluoro-phenoxy)-6-(1-ethyl-5-methyl-6-oxo-1,6-dihydro-pyridin-3-yl)-pyrimidin-4-yl]-amide]	< 500 nM
CCCCS(=O)(=O)Nc1cc(-c2cc(C)c(=O)n(C)c2)nc(Oc2cccc3c2ccn3C)n1 [Example 75, N-(6-(1,5-dimethyl-6-oxo-1,6-dihydropyridin-3-yl)-2-((1-methyl-1H-indol-4-yl)oxy)pyrimidin-4-yl)butane-1-sulfonamide]	< 500 nM
Cc1ccc(C)c(Oc2nc(NS(=O)(=O)C(C)C)cc(-c3cc(C)c(=O)n(C)c3)n2)c1 [Example 2, Propane-2-sulfonic acid [6-(1,5-dimethyl-6-oxo-1,6-dihydro-pyridin-3-yl)-2-(2,5-dimethyl-phenoxy)-pyrimidin-4-yl]-amide]	< 500 nM
CCCS(=O)(=O)Nc1cc(-c2cc(C)c(=O)n(C)c2)nc(Oc2c(C)cc(Cl)cc2Cl)n1 [Example 27, Propane-1-sulfonic acid [2-(2,4-dichloro-6-methyl-phenoxy)-6-(1,5-dimethyl-6-oxo-1,6-dihydro-pyridin-3-yl)-pyrimidin-4-yl]-amide]	< 500 nM
CCC(C)S(=O)(=O)Nc1cc(-c2cc(C)c(=O)n(C)c2)nc(Oc2c(C)cccc2C)n1 (stereo not shown) [Example 84, N-(6-(1,5-dimethyl-6-oxo-1,6-dihydropyridin-3-yl)-2-(2,6-dimethylphenoxy)pyrimidin-4-yl)butane-2-sulfonamide]	< 500 nM
CCCCS(=O)(=O)Nc1cc(-c2cc(C)c(=O)n(C)c2)nc(Oc2c(F)cccc2F)n1 [Example 18, Butane-1-sulfonic acid [2-(2,6-difluoro-phenoxy)-6-(1,5-dimethyl-6-oxo-1,6-dihydro-pyridin-3-yl)-pyrimidin-4-yl]-amide]	< 500 nM
Cc1cc(-c2cc(NS(=O)(=O)C(C)C)nc(Oc3ccc(F)cc3F)n2)cn(C(C)C)c1=O [Example 47, Propane-2-sulfonic acid [2-(2,4-difluoro-phenoxy)-6-(1-isopropyl-5-methyl-6-oxo-1,6-dihydro-pyridin-3-yl)-pyrimidin-4-yl]-amide]	500 to 5000 nM
CCCCS(=O)(=O)Nc1cc(-c2cc(C)c(=O)n(C)c2)nc(Oc2c(C)cccc2C#N)n1 [Example 22, Butane-1-sulfonic acid [2-(2-cyano-6-methyl-phenoxy)-6-(1,5-dimethyl-6-oxo-1,6-dihydro-pyridin-3-yl)-pyrimidin-4-yl]-amide]	< 500 nM

The remaining lines, values ahead:

IC50	Structure (SMILES)
< 500 nM	CCc1cccc(F)c1Oc1nc(NS(=O)(=O)C(C)CC)cc(-c2ccc(=O)n(C)c2)n1 (stereo not shown) [Example 338, N-(2-(2-ethyl-6-fluorophenoxy)-6-(1-methyl-6-oxo-1,6-dihydropyridin-3-yl)pyrimidin-4-yl)butane-2-sulfonamide]
< 500 nM	CC[C@@H](C)S(=O)(=O)Nc1cc(-c2ccc(=O)n(C)c2)nc(Oc2c(C)cccc2Cl)n1 [Example 204, Butane-(2R)-sulfonic acid [2-(2-chloro-6-methyl-phenoxy)-6-(1-methyl-6-oxo-1,6-dihydro-pyridin-3-yl)-pyrimidin-4-yl]-amide]
< 500 nM	CCS(=O)(=O)Nc1cc(-c2cc(C)c(=O)n(C)c2)nc(OC(C)c2ccccc2)n1 (stereo not shown) [Example 147, Ethanesulfonic acid [6-(1,5-dimethyl-6-oxo-1,6-dihydro-pyridin-3-yl)-2-(1-phenyl-ethoxy)-pyrimidin-4-yl]-amide]
< 500 nM	CCC[C@@H](C)S(=O)(=O)Nc1cc(-c2ccc(=O)n(C)c2)nc(Oc2c(C)cccc2Cl)n1 [Example 221, (2R)-Pentane-2-sulfonic acid [2-(2-chloro-6-methyl-phenoxy)-6-(1-methyl-6-oxo-1,6-dihydro-pyridin-3-yl)-pyrimidin-4-yl]-amide]
< 500 nM	CCC[C@H](C)Nc1cc(-c2ccc(=O)n(C)c2)nc(Oc2c(C)cccc2F)n1 [Example 308]
< 500 nM	CCCS(=O)(=O)Nc1cc(-c2ccc(=O)n(C)c2)nc(OC2CCCCC2)n1 [Example 245, Propane-1-sulfonic acid [2-cylcohexyloxy-6-(1-methyl-6-oxo-1,6-dihydro-pyridin-3-yl)-pyrimidin-4-yl]-amide]
< 500 nM	CCC[C@@H](C)Nc1cc(-c2ccc(=O)n(C)c2)nc(Oc2c(C)cccc2F)n1 [Example 305]
< 500 nM	CCCS(=O)(=O)Nc1nc(Oc2c(C)cccc2F)nc(-c2cc(C)c(=O)n(C)c2)c1C [Example 161, Propane-1-sulfonic acid [6-(1,5-dimethyl-6-oxo-1,6-dihydro-pyridin-3-yl)-2-(2-fluoro-6-methyl-phenoxy)-5-methyl-pyrimidin-4-yl]-amide]
< 500 nM	Cc1cccc(F)c1Oc1nc(N[C@H](C)c2ccccc2)cc(-c2ccc(=O)n(C)c2)n1 [Example 306, (R)-5-[2-(2-Fluoro-6-methyl-phenoxy)-6-(1-phenyl-ethylamino)-pyrimidin-4-yl]-1-methyl-1H-pyridin-2-one]
< 500 nM	CC[C@H](C)S(=O)(=O)Nc1cc(-c2ccc(=O)n(C)c2)nc(Oc2c(F)cccc2OC)n1 [Example 209, Butane-(2S)-sulfonic acid [2-(2-fluoro-6-methoxy-phenoxy)-6-(1-methyl-6-oxo-1,6-dihydro-pyridin-3-yl)-pyrimidin-4-yl]-amide]
< 500 nM	Cc1cccc(F)c1Oc1nc(N)cc(-c2cc(C)c(=O)n(C)c2)n1 [Example 294, 5-[6-Amino-2-(2-fluoro-6-methyl-phenoxy)-pyrimidin-4-yl]-1,3-dimethyl-1H-pyridin-2-one]
< 500 nM	Cc1cccc(F)c1Oc1nc(NS(=O)(=O)CCCF)cc(-c2ccc(=O)n(C)c2)n1 [Example 136, 3-Fluoro-propane-1-sulfonic acid [2-(2-fluoro-6-methyl-phenoxy)-6-(1-methyl-6-oxo-1,6-dihydro-pyridin-3-yl)-pyrimidin-4-yl]-amide]
< 500 nM	Cn1cc(-c2cc3nc(n2)Oc2cc(ccc2F)OCC=CCCCS(=O)(=O)N3)ccc1=O [Example 362, 5-(36-fluoro-11,11-dioxido-2,4-dioxa-11-thia-12-aza-1(2,4)-pyrimidina-3(1,3)-benzenacyclododecaphan-6-en-1^6-yl)-1-methylpyridin-2(1H)-one]
< 500 nM	Cc1cccc(C)c1Oc1nc(C#N)cc(-c2cc(C)c(=O)n(C)c2)n1 [Example 335, 6-(1,5-dimethyl-6-oxo(3-hydropyridyl))-2-(2,6-dimethylphenoxy)pyrimidine-4-carbonitrile]
< 500 nM	CCn1nc(C)c(Oc2nc(NS(=O)(=O)C(C)C)cc(-c3cc(C)c(=O)n(C)c3)n2)c1C [Example 127, Propane-2-sulfonic acid [6-(1,5-dimethyl-6-oxo-1,6-dihydro-pyridin-3-yl)-2-(1-ethyl-3,5-dimethyl-1H-pyrazol-4-yloxy)-pyrimidin-4-yl]-amide]
< 500 nM	CCCCS(=O)(=O)Nc1cc(-c2ccc(=O)n(C)c2)nc(Oc2c(F)ccc(C)c2F)n1 [Example 257, Butane-1-sulfonic acid [2-(2,6-difluoro-3-methyl-phenoxy)-6-(1-methyl-6-oxo-1,6-dihydro-pyridin-3-yl)-pyrimidin-4-yl]-amide]
< 500 nM	Cc1cc(-c2cc(S(C)(=O)=O)nc(Oc3ccc(F)cc3F)n2)cn(C)c1=O [Example 132, 5-[2-(2,4-Difluoro-phenoxy)-6-methanesulfonyl-pyrimidin-4-yl]-1,3-dimethyl-1H-pyridin-2-one]
